Test results published in patent US12133899B2 (priority 2020, dated 2024).

Columns and labels:
[1] = assay type: in vitro ADME, mice, rats, monkeys, humans; settings: blood, microsomes, S9, hepatocytes; rat samples
Method: In vitro metabolism of ALC-0315 and ALC-0159 was evaluated in blood, liver microsomes, S9 fractions, and hepatocytes from mice, rats, monkeys, and humans. In vivo metabolism was examined in rat plasma, urine, faeces, and liver samples from the PK study. […] ALC-0315 and ALC-0159 are apparently metabolised by hydrolytic metabolism of the ester and amide functionalities, respectively, and this hydrolytic metabolism is observed across the species evaluated.

in vivo = assay type: in vivo, rats; settings: rat; for drop of concentration in liver / drop of concentration in plasma: 2 weeks
Method: A single dose PK study of ALC-0315 and […] following intravenous (IV) bolus injection of a nanparticle formulation in rats was conducted to assess the PK and metabolism of lipid excipients ALC-0315 and ALC-0159.

luciferase expression = assay type: in vivo, mice; settings: ALC-0315/DSPC/CHOL/ALC-0159 prototype; IV

| Compound | metabolism in vitro and in vivo [1] | half-life (in vivo; in vivo, IV bolus, read-out: apparent terminal t½ in plasma and liver) [h] | eliminated unchanged in faeces (in vivo) [%] | drop of concentration in liver (in vivo; IV bolus) [fold] | drop of concentration in plasma (in vivo; IV bolus) | in vivo potency of Luc RNA LNP vs internal benchmark ALC-0218 (luciferase expression) | unchanged material in urine or faeces (in vivo) | apparent terminal t½ in plasma and liver (in vivo; IV bolus) [h] |
| --- | --- | --- | --- | --- | --- | --- | --- | --- |
| CCCCCCCCCCCCCCN(CCCCCCCCCCCCCC)C(=O)COCCOCCOCCOCCOCCOCCOCCOCCOCCOCCOCCOCCOCCOCCOCCOCCOCCOCCOCCOCCOCCOCCOCCOCCOCCOCCOCCOCCOCCOCCOCCOCCOCCOCCOCCOCCOCCOCCOCCOCCOCCOCCOCCOCCOCCOC [ALC-0159, 2-[(polyethylene glycol)-2000]-N,N-ditetradecylacetamide] | relatively slowly | 48 to 72 | 50 | > 250 | approximately 8000 fold | – | – | – |
| ((4-hydroxybutyl)azanediyl)bis(hexane-6,1-diyl)bis(2-hexyldecanoate) [ALC-0315] | relatively slowly | – | – | ~4 | approximately 7000 fold | improved potency | little to no unchanged material was detected | 140 to 190 |
